{"source": "paper PMC7250496", "about": "(Journal of medicinal chemistry, 2020)", "origin": "cited, not measured here", "key": {"mMC5R": {"target": "mMC5R (Mus musculus, UniProt P41149)", "sequence (P41149 whole entry)": "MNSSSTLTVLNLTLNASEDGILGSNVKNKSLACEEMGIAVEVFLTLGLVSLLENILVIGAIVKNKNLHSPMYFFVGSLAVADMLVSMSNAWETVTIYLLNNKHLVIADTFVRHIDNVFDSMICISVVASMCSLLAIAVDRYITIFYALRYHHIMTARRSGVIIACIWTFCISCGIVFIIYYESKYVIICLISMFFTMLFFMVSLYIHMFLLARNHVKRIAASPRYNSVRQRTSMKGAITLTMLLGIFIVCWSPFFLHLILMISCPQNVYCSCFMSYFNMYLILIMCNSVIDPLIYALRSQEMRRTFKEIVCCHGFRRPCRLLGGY", "conditions": "previously reported ref 80"}, "mMC3R": {"target": "mMC3R (Mus musculus, UniProt P33033)", "sequence (P33033 whole entry)": "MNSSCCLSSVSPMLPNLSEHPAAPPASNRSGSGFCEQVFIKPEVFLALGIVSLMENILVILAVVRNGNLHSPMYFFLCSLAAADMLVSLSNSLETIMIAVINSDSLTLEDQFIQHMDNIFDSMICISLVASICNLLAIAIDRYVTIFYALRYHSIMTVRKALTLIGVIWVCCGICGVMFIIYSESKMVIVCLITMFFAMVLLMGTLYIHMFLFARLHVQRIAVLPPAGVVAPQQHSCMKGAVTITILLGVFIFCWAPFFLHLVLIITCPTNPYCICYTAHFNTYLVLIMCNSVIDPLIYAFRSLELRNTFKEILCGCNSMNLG", "conditions": "previously reported ref 80"}}}
{"smiles": "C[C@@H]1NC(=O)[C@H](CN)NC(=O)[C@H](Cc2ccccc2)NC(=O)[C@H](Cc2ccccc2)NC(=O)[C@H](CCCNC(=N)N)NC(=O)[C@@H]2CCCN2C(=O)[C@H]2CCCN2C(=O)[C@H](Cc2ccccc2)NC1=O", "note": "[Compound 2, c[Pro-Arg-Phe-Phe-Dap-Ala-Phe-DPro]]", "values": [{"measurement": "mMC5R Inverse Agonist, percent decrease from basal", "setting": "mMC5R", "value": "Inverse Agonist −15%"}, {"measurement": "mMC3R pA2", "setting": "mMC3R; antagonist, Schild analysis, agonist NDP-MSH", "value": "6.5 ± 0.09"}, {"measurement": "EC50", "setting": "mMC3R; read-out: mMC3R EC50, agonist", "value": "> 100", "unit": "µM"}]}
